Assay results: ChEMBL document CHEMBL3885881, “DrugMatrix”

Species: Rattus norvegicus
Experiment: DrugMatrix - Regimen: Daily Repeat
Type: toxicity, organism-based, Sprague-Dawley
Design: regimen Daily Repeat, gender Male, age 6-8 weeks
Conditions: in vivo, sc, route subcutaneous, […]; for ABSOLUTE BASOPHIL / ABSOLUTE EOSINOPHIL / ABSOLUTE LYMPHOCYTE / ABSOLUTE MONOCYTE / ABSOLUTE SEGMENTED NEUTROPHIL / BASOPHIL / EOSINOPHIL / ERYTHROCYTE COUNT / HEMATOCRIT / HEMOGLOBIN / LEUKOCYTE COUNT / LYMPHOCYTE / MEAN CORPUSCULAR HEMOGLOBIN / MEAN CORPUSCULAR HEMOGLOBIN CONCENTRATION / MEAN CORPUSCULAR VOLUME / MONOCYTE / NEUTROPHIL / NUCLEATED RED BLOOD CELLS / PLATELET COUNT: tissue Blood; for ALANINE AMINOTRANSFERASE / ALBUMIN / ALKALINE PHOSPHATASE / ASPARTATE AMINOTRANSFERASE / BLOOD UREA NITROGEN / CARBON DIOXIDE / CHLORIDE / CHOLESTEROL / CREATINE PHOSPHOKINASE / CREATININE / GLUCOSE / LACTATE DEHYDROGENASE / LIPASE / PHOSPHORUS / POTASSIUM / SODIUM / TOTAL BILIRUBIN / TOTAL PROTEIN / URIC ACID: tissue Plasma
[1] = 24 mg/kg, 72 h, dose level High, time 3 day
[2] = 24 mg/kg, 120 h, dose level High, time 5 day
[3] = 72 h, dose 9.6 mg/Kg, dose level Low, time 3 day
[4] = 120 h, dose 9.6 mg/Kg, dose level Low, time 5 day

SMILES: CCCCNc1ccc(C(=O)OCCN(C)C)cc1 [TETRACAINE]
- ABSOLUTE BASOPHIL [1]: 0 CELLS/uL
- ABSOLUTE EOSINOPHIL [1]: 116 CELLS/uL
- ABSOLUTE LYMPHOCYTE [1]: 16844.33 CELLS/uL
- ABSOLUTE MONOCYTE [1]: 146.67 CELLS/uL
- ABSOLUTE SEGMENTED NEUTROPHIL [1]: 1826.33 CELLS/uL
- BASOPHIL [1]: 0%
- EOSINOPHIL [1]: 0.67%
- ERYTHROCYTE COUNT [1]: 5.64 x10E6/uL
- HEMATOCRIT [1]: 36.43%
- HEMOGLOBIN [1]: 14.5 G/DL
- LEUKOCYTE COUNT [1]: 18.93 x10E3/uL
- LYMPHOCYTE [1]: 89%
- MEAN CORPUSCULAR HEMOGLOBIN [1]: 25.67 pg
- MEAN CORPUSCULAR HEMOGLOBIN CONCENTRATION [1]: 39.83 G/DL
- MEAN CORPUSCULAR VOLUME [1]: 64.53 fL
- MONOCYTE [1]: 0.67%
- NEUTROPHIL [1]: 9.67%
- NUCLEATED RED BLOOD CELLS [1]: 0.33 /100WBC
- PLATELET COUNT [1]: 1264.67 x10E3/uL
- ALANINE AMINOTRANSFERASE [1]: 68.67 u/L
- ALBUMIN [1]: 4.23 G/DL
- ALKALINE PHOSPHATASE [1]: 328 u/L
- ASPARTATE AMINOTRANSFERASE [1]: 81 u/L
- BLOOD UREA NITROGEN [1]: 17 mg/dL
- CARBON DIOXIDE [1]: 22.67 mmol/L
- CHLORIDE [1]: 104 MEQ/L
- CHOLESTEROL [1]: 77 mg/dL
- CREATINE PHOSPHOKINASE [1]: 175.67 u/L
- CREATININE [1]: 0.27 mg/dL
- GLUCOSE [1]: 177.33 mg/dL
- LACTATE DEHYDROGENASE [1]: 88.67 u/L
- LIPASE [1]: 9.67 u/L
- PHOSPHORUS [1]: 12.97 mg/dL
- POTASSIUM [1]: 6.72 MEQ/L
- SODIUM [1]: 147.97 MEQ/L
- TOTAL BILIRUBIN [1]: 0.27 mg/dL
- TOTAL PROTEIN [1]: 6.03 G/DL
- URIC ACID [1]: 1.53 mg/dL
- ABSOLUTE BASOPHIL [2]: 0 CELLS/uL
- ABSOLUTE EOSINOPHIL [2]: 49.33 CELLS/uL
- ABSOLUTE LYMPHOCYTE [2]: 12917.33 CELLS/uL
- ABSOLUTE MONOCYTE [2]: 97.33 CELLS/uL
- ABSOLUTE SEGMENTED NEUTROPHIL [2]: 1669.33 CELLS/uL
- BASOPHIL [2]: 0%
- EOSINOPHIL [2]: 0.33%
- ERYTHROCYTE COUNT [2]: 5.38 x10E6/uL
- HEMATOCRIT [2]: 33.97%
- HEMOGLOBIN [2]: 13.67 G/DL
- LEUKOCYTE COUNT [2]: 14.73 x10E3/uL
- LYMPHOCYTE [2]: 87.67%
- MEAN CORPUSCULAR HEMOGLOBIN [2]: 25.47 pg
- MEAN CORPUSCULAR HEMOGLOBIN CONCENTRATION [2]: 40.3 G/DL
- MEAN CORPUSCULAR VOLUME [2]: 63.2 fL
- MONOCYTE [2]: 0.67%
- NEUTROPHIL [2]: 11.33%
- NUCLEATED RED BLOOD CELLS [2]: 0.33 /100WBC
- PLATELET COUNT [2]: 1410.33 x10E3/uL
- ALANINE AMINOTRANSFERASE [2]: 58.33 u/L
- ALBUMIN [2]: 3.93 G/DL
- ALKALINE PHOSPHATASE [2]: 329 u/L
- ASPARTATE AMINOTRANSFERASE [2]: 92.67 u/L
- BLOOD UREA NITROGEN [2]: 14.67 mg/dL
- CARBON DIOXIDE [2]: 23 mmol/L
- CHLORIDE [2]: 104.67 MEQ/L
- CHOLESTEROL [2]: 71 mg/dL
- CREATINE PHOSPHOKINASE [2]: 172 u/L
- CREATININE [2]: 0.22 mg/dL
- GLUCOSE [2]: 160.67 mg/dL
- LACTATE DEHYDROGENASE [2]: 83.67 u/L
- LIPASE [2]: 9.67 u/L
- PHOSPHORUS [2]: 12.47 mg/dL
- POTASSIUM [2]: 6.53 MEQ/L
- SODIUM [2]: 146.2 MEQ/L
- TOTAL BILIRUBIN [2]: 0.23 mg/dL
- TOTAL PROTEIN [2]: 5.73 G/DL
- URIC ACID [2]: 1.73 mg/dL
- ABSOLUTE BASOPHIL [3]: 0 CELLS/uL
- ABSOLUTE EOSINOPHIL [3]: 226.67 CELLS/uL
- ABSOLUTE LYMPHOCYTE [3]: 14925.33 CELLS/uL
- ABSOLUTE MONOCYTE [3]: 512.67 CELLS/uL
- ABSOLUTE SEGMENTED NEUTROPHIL [3]: 768.67 CELLS/uL
- BASOPHIL [3]: 0%
- EOSINOPHIL [3]: 1.67%
- ERYTHROCYTE COUNT [3]: 5.36 x10E6/uL
- HEMATOCRIT [3]: 34.5%
- HEMOGLOBIN [3]: 13.5 G/DL
- LEUKOCYTE COUNT [3]: 16.43 x10E3/uL
- LYMPHOCYTE [3]: 90.67%
- MEAN CORPUSCULAR HEMOGLOBIN [3]: 25.17 pg
- MEAN CORPUSCULAR HEMOGLOBIN CONCENTRATION [3]: 39.17 G/DL
- MEAN CORPUSCULAR VOLUME [3]: 64.4 fL
- MONOCYTE [3]: 2.33%
- NEUTROPHIL [3]: 5.33%
- NUCLEATED RED BLOOD CELLS [3]: 0.33 /100WBC
- PLATELET COUNT [3]: 1368.67 x10E3/uL
- ALANINE AMINOTRANSFERASE [3]: 52.33 u/L
- ALBUMIN [3]: 4.1 G/DL
- ALKALINE PHOSPHATASE [3]: 338.33 u/L
- ASPARTATE AMINOTRANSFERASE [3]: 87.67 u/L
- BLOOD UREA NITROGEN [3]: 15 mg/dL
- CARBON DIOXIDE [3]: 22.67 mmol/L
- CHLORIDE [3]: 104.67 MEQ/L
- CHOLESTEROL [3]: 79.67 mg/dL
- CREATINE PHOSPHOKINASE [3]: 530.33 u/L
- CREATININE [3]: 0.16 mg/dL
- GLUCOSE [3]: 187 mg/dL
- LACTATE DEHYDROGENASE [3]: 122.67 u/L
- LIPASE [3]: 9.33 u/L
- PHOSPHORUS [3]: 13.8 mg/dL
- POTASSIUM [3]: 5.89 MEQ/L
- SODIUM [3]: 147.2 MEQ/L
- TOTAL BILIRUBIN [3]: 0.2 mg/dL
- TOTAL PROTEIN [3]: 5.73 G/DL
- URIC ACID [3]: 1.9 mg/dL
- ABSOLUTE BASOPHIL [4]: 0 CELLS/uL
- ABSOLUTE EOSINOPHIL [4]: 0 CELLS/uL
- ABSOLUTE LYMPHOCYTE [4]: 14217 CELLS/uL
- ABSOLUTE MONOCYTE [4]: 0 CELLS/uL
- ABSOLUTE SEGMENTED NEUTROPHIL [4]: 2349.67 CELLS/uL
- BASOPHIL [4]: 0%
- EOSINOPHIL [4]: 0%
- ERYTHROCYTE COUNT [4]: 5.59 x10E6/uL
- HEMATOCRIT [4]: 35.87%
- HEMOGLOBIN [4]: 14.33 G/DL
- LEUKOCYTE COUNT [4]: 16.57 x10E3/uL
- LYMPHOCYTE [4]: 85.67%
- MEAN CORPUSCULAR HEMOGLOBIN [4]: 25.6 pg
- MEAN CORPUSCULAR HEMOGLOBIN CONCENTRATION [4]: 39.97 G/DL
- MEAN CORPUSCULAR VOLUME [4]: 64.13 fL
- MONOCYTE [4]: 0%
- NEUTROPHIL [4]: 14.33%
- NUCLEATED RED BLOOD CELLS [4]: 0.33 /100WBC
- PLATELET COUNT [4]: 1151 x10E3/uL
- ALANINE AMINOTRANSFERASE [4]: 58 u/L
- ALBUMIN [4]: 4.1 G/DL
- ALKALINE PHOSPHATASE [4]: 278.67 u/L
- ASPARTATE AMINOTRANSFERASE [4]: 76.33 u/L
- BLOOD UREA NITROGEN [4]: 17.67 mg/dL
- CARBON DIOXIDE [4]: 23.33 mmol/L
- CHLORIDE [4]: 103.67 MEQ/L
- CHOLESTEROL [4]: 76.33 mg/dL
- CREATINE PHOSPHOKINASE [4]: 262.33 u/L
- CREATININE [4]: 0.16 mg/dL
- GLUCOSE [4]: 153.67 mg/dL
- LACTATE DEHYDROGENASE [4]: 205 u/L
- LIPASE [4]: 9.67 u/L
- PHOSPHORUS [4]: 12.83 mg/dL
- POTASSIUM [4]: 6.7 MEQ/L
- SODIUM [4]: 147.8 MEQ/L
- TOTAL BILIRUBIN [4]: 0.23 mg/dL
- TOTAL PROTEIN [4]: 5.73 G/DL
- URIC ACID [4]: 1.53 mg/dL
